Data reported in US11479592B2, “Erythropoietin-derived peptide, preparation method and use thereof” (Zhongshan Hospital, Fudan University, priority 2017, dated 2022).
Numbered stars: 1 amine (or outer) side, 2 acyl side, 3 side chain; on linkers, the order of the positions; unused ones are H or OH. Square brackets hold non-standard residues; d marks the D form. Peptide text beside a SMILES is read from it. * marks the point of attachment. X1 = O=C1NC2CSC(CCCCC(=O)*)C2N1; X2 = CC(O)CC(N[*:1])C(=O)[*:2]; Abu = CC[CH](N)C(=O)O

What was measured:
[1] = system: fetal rat cortical neurons; experiment: Oxygen-glucose deprivation (OGD)-induced damage to neurons, MTT cell survival and LDH release; type: cell-based; details: 3 h hypoxia (1% oxygen), then 4 h with EPO 5, 100 μg/ml or T3 5, 50, 100 μg/ml
Protocol: According to the methods from literatures, the fetal rat cortical neurons were cultured in the serum-free culture medium of Neurobasal® Medium (purchased from the market). After incubation in a 5% CO2 incubator for 7-14 days, the neurons were specifically labeled: microtubule-associated protein-2 (MAP-2) was stained and identified, and the nuclei were labeled with the fluorescent dye of 4, 6-diamidino-2-phenylindole (DAPI).
The fetal rat cortical neurons of primary culture were cultured in a sugar-free DMED culture medium. After being placed in the hypoxic incubator to damage neurons for 3 h, the culture medium were replaced with serum-free culture medium. EPO, the novel EPO-derived peptide (T3) and the culture medium were added to different groups respectively, and the groups were cultured in a 5% CO2 normal oxygen incubator for 4 h. Then the LDH release rate and MTT cell survival rate of each group were measured.
1. Selecting well-grown neurons cultured for 7-14 days, aspirating the old culture medium of neurons, washing 3 times with PBS buffer, and then adding sugar-free DMEM:
2. Placing the culture plates in an anoxic incubator at 37° C., and setting the oxygen concentration therein as 1%.
3. Removing the culture plates after 3 h of hypoxia, aspirating the sugar-free medium, replacing it with the original serum-free maintenance medium, adding EPO (5 μg/ml, 100 μg/ml), the EPO-derived peptide of the present invention (5 μg/ml, 50 μg/ml, 100 μg/ml), and the culture medium respectively, and placing in an 5% CO2 incubator with 95% air at 37° C. for 4 h.
4. After 4 h, measuring the cell survival rate (MTT kit, Beyotime Biotechnology Co., Ltd.) and LDH lactic dehydrogenase release rate (LDH kit, Promega Corporation) of the cells in each group.

[2] = system: pilocarpine-induced seizures; experiment: Pilocarpine-induced epilepsy model: seizure latency; type: in vivo, C57/BL6 mice; details: for seizure latency / seizure latency versus saline and solvent groups: EPO 50 μg/kg; for seizure latency: T3 500 μg/kg i.p. 1 day, 4 h, 2 h before pilocarpine 350 mg/kg; for seizure latency versus saline and solvent groups: T3 500 μg/kg, difference statistically significant
Protocol: C57/BL6 mice (male, 20-25 g, 24 mice, purchased from Shanghai JieSiJie Laboratory Animal Co., Ltd) were divided into physiological saline group (Saline, 0.2 ml/mouse), solvent group (ACN+Milliq, 0.2 ml/mouse), EPO group (50 μg/kg), novel EPO-derived peptide group (T3, 500 μg/kg), 6 mice each group. The drugs were administered 1 day, 4 h, and 2 h before pilocarpine-induced epilepsy, and the seizure latency and severity of seizures were recorded.
1. Intraperitoneally administering the mice 1 day, 4 h, 2 h prior to the injection of pilocarpine;
2. Intraperitoneally injecting scopolamine (1 mg/kg) 30 min in advance to reduce the peripheral cholinergic response induced by pilocarpine;
3. Intraperitoneally injecting pilocarpine (350 mg/kg), recording the time of administration, time of onset, severity of seizure;
Behavioral grading of epilepsy continuing status using the Racine scale:
Grade I: staring, mouth and facial movements;
Grade II: nodding, single jerks;
Grade III: unilateral/bilateral forelimb clonus
Grade V: loss of posture, jumping repeatedly, falling, tonic clonic seizure.

[3] = system: mouse model of transient middle cerebral artery occlusion; experiment: Mouse model of transient middle cerebral artery occlusion: neurobehavioral scores, cerebral infarction volume; type: in vivo, ICR mice; details: for cerebral infarction volume versus control group / neurobehavioral scores versus control group: EPO 50 μg/kg, T3 500 μg/kg at reperfusion; for Neurobehavioral scores / Cerebral infarction volumes: third day after surgery; for Neurobehavioral scores: 60 min ischemia then reperfusion; for Cerebral infarction volumes: cresyl violet sections
Protocol: ICR mice (male, 25-30 g, 18 mice, purchased from Shanghai Slac Laboratory Animal Co., Ltd.) were divided into control group (ACN+Millq, 0.2 ml/mouse), EPO group (50 μg/kg), novel EPO-derived peptide group (T3, 500 μg/kg), 6 mice/group. Mice in each group were operated with suture-occluded method in mice to establish middle cerebral artery occlusion model, the mice were anesthetized by intraperitoneal injection of ketamine hydrochloride and fixed on the operating table. After 60 min of ischemia, the sutures were removed to reperfuse, and the solvents (ACN+Milliq), EPO, and T3 were administered separately. Neurobehavioral scores were measured on the third day after surgery, and then the mice were sacrificed to reperfuse and the brains were harvested to make sections stained with cresyl violet. The results were shown in FIG. 7A, FIG. 7B and FIG. 7C.
1. Disinfecting the neck, making an incision at the center of the neck, exposing the left common carotid artery with a microsurgical forceps under a stereo microscope, separating the internal carotid artery, external carotid artery and pterygopalatine artery, ligating the common carotid artery and internal carotid artery; making two knots on the external carotid artery with two filaments, wherein one at the distal part of the external carotid artery is a dead knot, and one at the proximal part of the external carotid artery is a slipknot;
2. Making a small incision on the external carotid artery with venus scissors, having about half the size of the blood vessel;
3. Cutting the external carotid artery, and carefully reversely inserting the suture from the external carotid artery into the bifurcation of the external carotid artery and internal carotid artery, then loosening the knot on the internal carotid artery, inserting the suture into the internal carotid artery until it encounters a slight resistance, that is, the origin of the middle cerebral artery, and putting the mouse back into the cage.
4. Anesthetizing and fixing again after 60 min of cerebral ischemia, and re-exposing the common carotid artery, internal carotid artery and suture parts under a stereo microscope;
5. Loosening the filament ligated to the proximal part of the external carotid artery for fixing the suture with the microsurgical forceps, slowly withdrawing the suture, and ligating the stump of the external carotid artery, loosening the filament ligated to the common carotid artery to achieve reperfusion;
6. Suturing the incision of the neck, disinfecting the area, and putting the mouse back in the cage for observation.

[4] = system: fetal rat cortical neurons; experiment: NMDA-induced damage to neurons, MTT cell survival and LDH release; type: cell-based; details: NMDA 250 μmol/L, 60 min; EPO 5 μg/ml, T3 100 μg/ml
Protocol: Based on the above results, the primary cortical neurons were administered with 250 μmol/L NMDA.
1. Selecting well-grown neurons cultured for 7-14 days, and adding EPO (5 μg/ml), the EPO-derived peptide of the present invention (100 μg/ml) respectively;
2. Adding NMDA to achieve a final concentration of 250 μmol/L, and culturing in an incubator at 37° C. for 60 min;
3. Discarding the culture medium, and measuring the cell survival rate (MTT kit, Beyotime Biotechnology Co., Ltd.) and LDH lactic dehydrogenase release rate (LDH kit, Promega Corporation) of the cells in each group.

[5] = Blood-brain barrier penetration experiment: biotin in cerebrospinal fluid; type: in vivo, mouse; details: mice, biotin detected in cerebrospinal fluid
Protocol: The biotin-labeled novel EPO-derived peptide was injected intraperitoneally. 5-15 μl of mouse cerebrospinal fluid was taken under general anesthesia 1 h after administration. The biotin assay kit was used to detect whether the biotin-labeled novel EPO-derived peptide entered the cerebrospinal fluid across the blood-brain barrier.
1. Anesthetizing the mouse with 4% chloral hydrate;
2. Wiping the nape of the neck with wet gauze, and cutting off the dorsal set to expose the skin; making a sagittal incision in the skin below the occipital bone, and separating the skin from both sides to expand the visual field;
3. Letting the mouse prone, placing the body at an angle of 135° to the head and fixing the head on the stereotactic instrument; bluntly separating the subcutaneous tissue and muscle along the midline under the stereo microscope; at this angle, the dura mater and spinal cord can be clearly seen in the incision below the occipital bone (The main features are a clear white appearance, a cyclical pulsation of the spinal cord blood vessels and an adjacent cerebrospinal fluid area);
4. Setting the heat value as 300 and the pressure value as 330 in the needle puller, pulling the capillary glass tube into a pointed capillary tube, and trimming the tip of the pointed capillary tube with scissors to make the blunt tip have a diameter of 0.5 mm;
5. […]

red blood cells = experiment: Hematopoietic experiment: red blood cell counts after daily intraperitoneal injection; type: in vivo, C57/BL6 mice; details: for RBC generation (erythrocyte counts): tail vein blood; for red blood cell counts compared with the other groups (Saline, ACN+Milliq): as the number of administrations increases
Protocol: 18-22 g of male C57/BL6 mice (purchased from Shanghai SIPPR-BK Laboratory Animal Co., Ltd., 50 mice in total and 10 mice for each group) were used. The five groups were injected intraperitoneally with EPO (50 μg/kg), EPO-derived peptide of the present invention (50 μg/kg), EPO-derived peptide of the present invention (250 μg/kg), physiological saline (0.1 m/mouse), and solvent (ACN+Milliq, 0.1 m/mouse) once a day, respectively. On the 3th, 7th, and 13th days, the blood samples were collected from the tail vein and measured by a ProCyte Dx automatic blood cell analyzer to obtain the numbers of red blood cells thereof.

[6] = 50 ug/kg i.p. once a day, 3th day
[7] = 50 ug/kg i.p. once a day, 7th day
[8] = 50 ug/kg i.p. once a day, 13th day

Compound	LDH release rate versus control group [1]	cell survival rate (MTT) versus control group [1]	seizure latency [2] [min]	seizure latency versus saline and solvent groups [2]	cerebral infarction volume versus control group [3]	neurobehavioral scores versus control group [3]	LDH release rate versus control group [4]	cell survival rate (MTT) versus control group [4]	RBC generation (erythrocyte counts) (red blood cells; [6]) [M/μL]	RBC generation (erythrocyte counts) (red blood cells; [7]) [M/μL]	RBC generation (erythrocyte counts) (red blood cells; [8]) [M/μL]	red blood cell counts compared with the other groups (Saline, ACN+Milliq) (red blood cells)	other results
CCC(NC(=O)C(CC(C)C)NC(=O)CNC(=O)C(CO)NC(=O)C(NC(=O)C(C)NC(=O)C(CC(=O)O)NC(=O)C(NC(=O)C(Cc1cnc[nH]1)NC(=O)C(CC(C)C)NC(=O)C(CCC(N)=O)NC(=O)C(CC(C)C)NC(=O)C1CCCN1C(=O)C(CO)NC(=O)C(CO)NC(=O)C(CC(N)=O)NC(=O)C(NC(=O)C(CC(C)C)NC(=O)C(CC(C)C)NC(=O)C(C)NC(=O)C(CCC(N)=O)NC(=O)CNC(=O)C(CCCNC(=N)N)NC(=O)C(CC(C)C)NC(=O)C(NC(=O)C(C)NC(=O)C(CCC(=O)O)NC(=O)C(CO)NC(=O)CCCCC1SCC2NC(=O)NC21)C(C)C)C(C)C)C(C)C)C(C)C)C(=O)NC(CO)C(=O)NC(CC(C)O)C(=O)NC(C(=O)NC(C(=O)NC(CC(C)C)C(=O)NC(CC(C)C)C(=O)NC(CCCNC(=N)N)C(=O)NC(C)C(=O)NC(CC(C)C)C(=O)O)C(C)O)C(C)O (stereo not drawn) [T3] (X1-SEAVLRGQALLVNSSPLQLHVDAVSGL[Abu]S[X2]TTLLRAL-OH; configuration not given here)	lower than that in the control group	higher than that in the control group	40.58 ± 3.67	longer than those of the physiological saline group and the solvent group	lower than those of the control group	lower than those of the control group	lower than that in the control group	higher than that in the control group	9.29 ± 0.13	8.75 ± 0.36	6.77 ± 0.18	no significant increase	loss of neurons in the hippocampus ([2]; animals with nerve damage (epilepsy model), summary statement): reduce the loss of neurons in the hippocampus; Neurobehavioral scores ([3]; column head: Ctrl + T3 group): 6.3 ± 0.7; Cerebral infarction volumes ([3]; column head: ctrl + T3 group): 40.54 ± 5.78 mm^3; Cerebral infarction volumes ([3]; column head:): 37.72 ± 9.20 mm^3; Neurobehavioral scores ([3]; column head:): 5.7 ± 0.3; blood-brain barrier penetration [5]: could enter the cerebrospinal fluid across the blood-brain barrier; RBC generation (erythrocyte counts) (red blood cells; 250 ug/kg i.p. once a day, 3th day): 8.16 ± 0.28 M/μL; RBC generation (erythrocyte counts) (red blood cells; 250 ug/kg i.p. once a day, 7th day): 9.56 ± 0.54 M/μL; RBC generation (erythrocyte counts) (red blood cells; 250 ug/kg i.p. once a day, 13th day): 6.52 ± 0.12 M/μL
Erythropoietin [EPO]	lower than that in the control group	higher than that in the control group	41.16 ± 3.52	longer than those of the physiological saline group and the solvent group	lower than those of the control group	lower than those of the control group	lower than that in the control group	higher than that in the control group	9.14 ± 0.56	12.79 ± 0.24	11.15 ± 0.23	significantly higher than that of other groups	
